Measurements reported in PMC7729398, “Unravelling the intricate cooperativity of subunit gating in P2X2 ion channels” (Scientific Reports, 2020).
Numbering of substitutions follows the chain as printed.

How the values were obtained:
P2X2 receptor = molecular target: T1, P2X2 receptor (Rattus norvegicus, UniProt P49653); assay: whole-cell and single-channel (cell-attached) patch-clamp, fast ATP jumps, global kinetic fit; type: cell-based
T1 construct: gene P2rx2; wild type rat P2X2 in HEK293 (Flp-In T-REx 293) cells
T1 sequence (P49653 1-472): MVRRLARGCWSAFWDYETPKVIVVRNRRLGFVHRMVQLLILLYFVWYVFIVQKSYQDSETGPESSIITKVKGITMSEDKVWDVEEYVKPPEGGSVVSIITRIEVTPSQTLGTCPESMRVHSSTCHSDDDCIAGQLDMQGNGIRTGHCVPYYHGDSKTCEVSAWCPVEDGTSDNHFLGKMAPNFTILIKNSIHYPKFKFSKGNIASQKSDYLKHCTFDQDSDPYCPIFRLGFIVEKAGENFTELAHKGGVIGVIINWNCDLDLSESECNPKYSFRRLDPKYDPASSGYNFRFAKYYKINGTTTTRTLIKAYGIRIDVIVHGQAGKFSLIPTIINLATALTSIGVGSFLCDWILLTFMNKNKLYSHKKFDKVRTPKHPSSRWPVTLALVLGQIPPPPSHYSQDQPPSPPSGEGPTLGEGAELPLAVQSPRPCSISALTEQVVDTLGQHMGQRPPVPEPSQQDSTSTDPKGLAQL

P2X2 receptor H319K = molecular target: T2, P2X2 receptor H319K (Rattus norvegicus, UniProt P49653, H319K); assay: as above; type: cell-based
T2 construct: gene P2rx2; rat P2X2 H319K in HEK293 (Flp-In T-REx 293) cells
T2 sequence (P49653 1-472 H319K): T1 sequence (P49653 1-472) with H319K

**Q.** Which results are given for `Nc1ncnc2c1ncn2[C@@H]1O[C@H](COP(=O)(O)OP(=O)(O)OP(=O)(O)O)[C@@H](O)[C@H]1O` [ATP]?
**A.** EC50 (P2X2 receptor): 1200 nM; EC50 (P2X2 receptor H319K): ~ 30 nM
